“And” between values parts separate entries of the source, which are not always exact repeats. Equal entries are not always repeated. Toxic doses and inconclusive results are not listed. The calls were made as follows: active = survival T/C of 150% or more; inactive = T/C below 125% in these data.
Tested on: P388 leukemia ip, CD2F1 mice, survival T/C
Test: NCI In Vivo Anticancer Drug Screen. Data for tumor model P388 Leukemia (intraperitoneal) in CD2F1 (CDF1) mice
Conditions: endpoint: median survival time, higher = longer survival
How it was run: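 Mice carrying the transplanted tumor received test compound or vehicle. Survival was recorded in each group, and the value is the treated-group measurement divided by that of the vehicle-treated control group.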

[1] = dose: 100.0 mg/kg/injection, schedule: Q01DX009 (ip), vehicle: saline with Tween-80
[2] = dose: 12.5 mg/kg/injection, schedule: Q01DX009 (ip), vehicle: saline with Tween-80
[3] = dose: 25.0 mg/kg/injection, schedule: Q01DX009 (ip), vehicle: saline with Tween-80
[4] = dose: 50.0 mg/kg/injection, schedule: Q01DX009 (ip), vehicle: saline with Tween-80
[5] = dose: 60.0 mg/kg/injection, schedule: Q01DX005 (ip), vehicle: saline with Tween-80
[6] = dose: 120.0 mg/kg/injection, schedule: Q01DX005 (ip), vehicle: saline with Tween-80
[7] = dose: 240.0 mg/kg/injection, schedule: Q01DX005 (ip), vehicle: saline with Tween-80

Measured: T/C

COc1ccc(Cl)cc1C(c1cc(Cl)ccc1OC)C(Cl)(Cl)Cl
inactive: [1] 100 % of control | dose: 200.0 mg/kg/injection, schedule: Q01DX009 (ip), vehicle: saline with Tween-80 100 % of control | dose: 400.0 mg/kg/injection, schedule: Q01DX009 (ip), vehicle: saline with Tween-80 90 % of control

CC1(O)CC[N+](C)(C)CC1c1ccccc1 (stereo not given)
inactive: dose: 50.0 mg/kg/injection, schedule: Q04DX003 (ip), vehicle: saline 118 % of control | dose: 100.0 mg/kg/injection, schedule: Q04DX003 (ip), vehicle: saline 113 % of control

CCOC(=S)NS(=O)(=O)c1ccccc1
inactive: dose: 6.25 mg/kg/injection, schedule: Q01DX009 (ip), vehicle: saline with Tween-80 107 % of control | [2] 102 % of control | [3] 109 % of control | [4] 116 % of control

CC(=O)O.CC(C)=CCC(OC(=O)C=C(C)C)c1cc(O)c2c(O)ccc(O)c2c1O.[Cr] (stereo not given)
inactive: dose: 100.0 mg/kg/injection, schedule: Q01DX001 (ip), vehicle: saline with Tween-80 93 % of control | dose: 200.0 mg/kg/injection, schedule: Q01DX001 (ip), vehicle: saline with Tween-80 93 % of control | dose: 400.0 mg/kg/injection, schedule: Q01DX001 (ip), vehicle: saline with Tween-80 94 % of control

CC(=O)OCc1cc[n+](C)cc1
inactive: dose: 12.5 mg/kg/injection, schedule: Q01DX009 (ip), vehicle: water 100 % of control | dose: 25.0 mg/kg/injection, schedule: Q01DX009 (ip), vehicle: water 105 % of control | dose: 50.0 mg/kg/injection, schedule: Q01DX009 (ip), vehicle: water 101 % of control | dose: 100.0 mg/kg/injection, schedule: Q01DX009 (ip), vehicle: water 102 % of control | dose: 200.0 mg/kg/injection, schedule: Q01DX009 (ip), vehicle: water 93 % of control | dose: 400.0 mg/kg/injection, schedule: Q01DX009 (ip), vehicle: water 112 % of control

O=C(CBr)NN=C(c1ccccc1)c1ccccc1
inactive: dose: 29.0 mg/kg/injection, schedule: Q01DX009 (ip), vehicle: saline with Tween-80 104 % of control | dose: 58.0 mg/kg/injection, schedule: Q01DX009 (ip), vehicle: saline with Tween-80 101 % of control | dose: 116.0 mg/kg/injection, schedule: Q01DX009 (ip), vehicle: saline with Tween-80 110 % of control

C/C=C1\CN(C)C2Cc3c([nH]c4ccccc34)C(c3c(OC)ccc4c5c([nH]c34)C3(C(=O)OC)CC4CC(CC)C3N(CC5)C4)CC1C2C(=O)OC (stereo not given)
inactive: [2] 115 % of control | [3] 106 % of control | [4] 106 % of control | [1] 91 % of control

COc1ccc2c(O)c3[n+](cc2c1OC)CCc1cc2c(cc1-3)OCO2
inactive: [5] 99 % of control | [6] 104 % of control | [7] 101 % of control

S=C(N/N=C1\CSCc2ccccc21)Nc1cc(Cl)ccc1Cl
inactive: [2] 87 % of control | [3] 90 % of control | [4] 100 % of control

CC(c1ccc2c(c1)CCC1C2C2OC2C2(O)CC=CC(=O)C12C)C1CC2(C)OC2(C)C(O)O1 (stereo not given)
inactive: dose: 3.0 mg/kg/injection, schedule: Q01DX009 (ip), vehicle: saline with Tween-80 113 % of control | dose: 6.0 mg/kg/injection, schedule: Q01DX009 (ip), vehicle: saline with Tween-80 100 % of control | dose: 12.0 mg/kg/injection, schedule: Q01DX009 (ip), vehicle: saline with Tween-80 109 % of control | dose: 24.0 mg/kg/injection, schedule: Q01DX009 (ip), vehicle: saline with Tween-80 107 % of control | dose: 48.0 mg/kg/injection, schedule: Q01DX009 (ip), vehicle: saline with Tween-80 102 % of control

O=[N+]([O-])c1cc(NC(=S)SCc2ccc3c(c2)OCO3)ccc1Cl
inactive: dose: 50.0 mg/kg/injection, schedule: Q01DX009 (ip), vehicle: suspension in saline 110 % of control | dose: 100.0 mg/kg/injection, schedule: Q01DX009 (ip), vehicle: suspension in saline 114 % of control | dose: 200.0 mg/kg/injection, schedule: Q01DX009 (ip), vehicle: suspension in saline 87 % of control

O=C(O)CSCCCCCCSCC(=O)O
inactive: dose: 50.0 mg/kg/injection, schedule: Q01DX009 (ip), vehicle: saline 103 % of control | dose: 100.0 mg/kg/injection, schedule: Q01DX009 (ip), vehicle: saline 103 % of control | dose: 200.0 mg/kg/injection, schedule: Q01DX009 (ip), vehicle: saline 103 % of control

Cc1ccc(NC(=O)CCCC(=O)C(C#N)c2ccccc2Cl)cc1C (stereo not given)
inactive: [5] 102 % of control | [6] 108 % of control | [7] 101 % of control

C[P+]1(C)CCCCC1
inactive: dose: 100.0 mg/kg/injection, schedule: Q01DX001 (ip), vehicle: saline 98 % of control | dose: 200.0 mg/kg/injection, schedule: Q01DX001 (ip), vehicle: saline 91 % of control

CC(=O)Nc1cc2nc3ccc(C)cc3oc-2c(C)c1=O
inactive: dose: 0.78 mg/kg/injection, schedule: Q01DX009 (ip), vehicle: other 113 % of control | dose: 1.56 mg/kg/injection, schedule: Q01DX009 (ip), vehicle: other 98 % of control | dose: 3.13 mg/kg/injection, schedule: Q01DX009 (ip), vehicle: other 98 % of control | dose: 6.25 mg/kg/injection, schedule: Q01DX009 (ip), vehicle: other 103 % of control

CC(C)N=C(c1ccccc1)N1CCCCC1
inactive: dose: 12.5 mg/kg/injection, schedule: Q01DX009 (ip), vehicle: saline 98 % of control | dose: 25.0 mg/kg/injection, schedule: Q01DX009 (ip), vehicle: saline 100 % of control

CCC(SC)(SC)C(=O)N(C)c1ccccc1
inactive: [3] 100 % of control | [4] 104 % of control | [1] 100 % of control

O=c1[nH]c2cc(Cl)ccc2nc1/C=C(\O)c1ccccc1O
inactive: [5] 86 % of control and 95 % of control | [6] 92 % of control | [7] 89 % of control and 96 % of control

O=C(O)COc1cccc2c(=O)cc(-c3ccccc3)oc12
inactive: dose: 50.0 mg/kg/injection, schedule: Q01DX005 (ip), vehicle: saline 102 % of control | dose: 100.0 mg/kg/injection, schedule: Q01DX005 (ip), vehicle: saline 101 % of control | dose: 200.0 mg/kg/injection, schedule: Q01DX005 (ip), vehicle: saline 99 % of control

Cn1ccc(=O)n(C)c1=O
inactive: dose: 100.0 mg/kg/injection, schedule: Q04DX002 (ip), vehicle: saline 107 % of control | dose: 200.0 mg/kg/injection, schedule: Q04DX002 (ip), vehicle: saline 107 % of control | dose: 400.0 mg/kg/injection, schedule: Q04DX002 (ip), vehicle: saline 109 % of control

Cc1ccc(S(=O)(=O)NCCCl)cc1
inactive: dose: 25.0 mg/kg/injection, schedule: Q04DX003 (ip), vehicle: saline with Tween-80 104 % of control | dose: 50.0 mg/kg/injection, schedule: Q04DX003 (ip), vehicle: saline with Tween-80 99 % of control | dose: 100.0 mg/kg/injection, schedule: Q04DX003 (ip), vehicle: saline with Tween-80 114 % of control | dose: 200.0 mg/kg/injection, schedule: Q04DX003 (ip), vehicle: saline with Tween-80 98 % of control

Cc1[nH]c(C(=O)NN)c(C)c1C(=O)NN
inactive: [3] 91 % of control | [4] 95 % of control | [1] 91 % of control

COC(=O)c1c(OC)c(Cl)c2cc3c(c(O)c2c1C)C(=O)[C@@]1(O)C(=O)C=C(OC)[C@H](O)[C@@]1(O)C3=O
inactive: dose: 11.0 mg/kg/injection, schedule: Q01DX005 (ip), vehicle: saline with Tween-80 103 % of control | dose: 22.0 mg/kg/injection, schedule: Q01DX005 (ip), vehicle: saline with Tween-80 105 % of control | dose: 44.0 mg/kg/injection, schedule: Q01DX005 (ip), vehicle: saline with Tween-80 89 % of control | dose: 88.0 mg/kg/injection, schedule: Q01DX005 (ip), vehicle: saline with Tween-80 94 % of control | dose: 176.0 mg/kg/injection, schedule: Q01DX005 (ip), vehicle: saline with Tween-80 99 % of control

COc1ccc2c(c1)CCc1cc(OC)ccc1/[N+]([O-])=[N+]\2[O-]
inactive: [5] 93 % of control | [6] 93 % of control | [7] 101 % of control

Source: PubChem BioAssay AID330 (DTP/NCI, 2004)
